Structures can show the parent of a compound that is named as a salt. Where two headings read alike, the source gives them in different places.
What was measured:
gastric secretion = assay: anti-secretory activity, pylorus-ligated fasting rats (Shay rat procedure); type: in vivo; conditions: for Anti-Secretory Activity (% Reduction of gastric secretion, ml./100 gm.): 50 mg./kg., fasting rats, 4 hours after pylorus ligation, subcutaneous (footnote), intraperitoneal; for anti-secretory activity rather than ulcerogenic properties (in words): rat, in vivo
Experimental: The anti-secretory properties of certain compounds of the invention was determined using the following procedure. The stomachs of fasting rats were ligated at the pylorus (Shay rat procedure) immediately followed by an intraperitoneal injection of 50 mg./kg. of each compound tested. Four hours later the animals were sacrificed, the stomachs removed and the total volume of fluid was measured.
*% Reduction of gastric secretion (ml./100 gm.) after subcutaneous
administration to fasting rats at 50 mg./kg.

[1] = tested on: carrageenin-induced pedal edema; assay: inhibition of carrageenin-induced pedal edema in rats; type: in vivo, rats (male Wistar); conditions: Rattus norvegicus
Experimental: The anti-inflammatory activity of a number of representative compounds of the invention was determined by measuring inhibition of carrageenin-induced pedal edema in rats. The procedure used was a modification of the method of Winter et al., Proc. Soc. Exptl. […] The device used for measurement of the paw volume was an adaptation of the water displacement procedure described by Adamkiewicz et al., Can. J. Biochem. Physiol. […] The compounds were studied for their effectiveness in inhibiting the edema caused by the intraplantar injection of 0.05 ml. of a sterile 1.0% solution of carrageenin. […] The compounds were administered orally one hour prior to the injection of the phlogistic substance (carrageenin) into the left hind paw of the rats. At peak swelling time (3 hours), the volume of edema was calculated by differential paw volumes.

[2] = U.S. Pat. No. 3,354,164; cited from earlier work
[3] = oral, one hour before carrageenin, edema at 3 hours, dose which reduced edema formation by 25% or more in 50% of the animals, read-out: Anti-Inflammatory Activity (ED50)
[4] = po, 3 h, typical ED50 values from the same test, read-out: Anti-Inflammatory Activity (ED50), known antiinflammatory agents
[5] = po, 3 h, read-out: Anti-Inflammatory Activity (ED50), known antiinflammatory agents

Row | Structure (SMILES) | ED50 [1, 3] [mg/kg] | other results
1 | CCN(CC)CCNc1nnc2c3ccccc3ccn12 [3-(N,N-diethylaminoethylamino)-s-triazolo-[3,4-a]-isoquinoline] | 172 | Anti-Secretory Activity (% Reduction of gastric secretion, ml./100 gm.) (gastric secretion): 49%; anti-secretory activity rather than ulcerogenic properties (in words) (gastric secretion): exhibit anti-secretory activity rather than the ulcerogenic properties
2 | Br.Cc1nnc2c3cccc(C#N)c3ccn12 [3-methyl-7-cyano-s-triazolo-[3,4-a]-isoquinoline hydrobromide] | < 100 | 
3 | c1cn2cnnc2c2cc3c(cc12)OCO3 [8,9-Methylenedioxy-s-triazolo-[3,4-a]-isoquinoline] | ~24 | Anti-Secretory Activity (% Reduction of gastric secretion, ml./100 gm.) (gastric secretion): 29.5%; anti-secretory activity rather than ulcerogenic properties (in words) (gastric secretion): exhibit anti-secretory activity rather than the ulcerogenic properties
4 | c1ccc2c(c1)ccn1cnnc21 [s-triazolo-[3,4-a]-isoquinoline] |  | coronary vasodilator activity (in words) [2]: coronary vasodilators
5 | Cl.Cl.Clc1cccc2c1ccn1c(CN3CCOCC3)nnc21 [7-Chloro-3-morpholinomethyl-s-triazolo-[3,4-a]-isoquinoline (Dihydrochloride)] | ~160 | 
6 | FC(F)(F)c1nnc2c3cc4c(cc3ccn12)OCO4 [3-Trifluoromethyl-8,9-methylenedioxy-s-triazolo-[3,4-a]-isoquinoline] | 80 | 
7 | CCCCC1C(=O)N(c2ccccc2)N(c2ccccc2)C1=O [Phenylbutazone, reference compound] |  | ED50 [1, 4]: 30 mg/kg
8 | Cc1nnc2c3cccc(Cl)c3ccn12.Cl [3-methyl-7-chloro-s-triazolo-[3,4-a]-isoquinoline hydrochloride] | > 30 | 
9 | CC(C)Cc1nnc2c3ccccc3ccn12 [3-isobutyl-s-triazolo-[3,4-a]-isoquinoline] | 130 | Anti-Secretory Activity (% Reduction of gastric secretion, ml./100 gm.) (gastric secretion): 16%; anti-secretory activity rather than ulcerogenic properties (in words) (gastric secretion): exhibit anti-secretory activity rather than the ulcerogenic properties
10 | COc1ccc2c(c1)-c1nnc(C(F)(F)F)n1CC2.Cl [3-Trifluoromethyl-5,6-dihydro-9-methoxy-s-triazolo-[3,4-a]-isoquinoline Hydrochloride] | 38 | 
11 | Cl.c1c2c(cc3c1OCO3)-c1nncn1CC2 [5,6-Dihydro-8,9-methylenedioxy-s-triazolo-[3,4-a]-isoquinoline, Hydrochloride] | ~160 | 
12 | COc1ccc2ccn3c(C(F)(F)F)nnc3c2c1 [3-Trifluoromethyl-9-methoxy-s-triazolo-[3,4-a]-isoquinoline] | 39 | 
13 | CC(=O)OCC(=O)[C@@]1(O)CC[C@H]2[C@@H]3CCC4=CC(=O)CC[C@]4(C)[C@H]3[C@@H](O)C[C@@]21C [Hydrocortisone Acetate, reference compound] |  | ED50 [1, 4]: 26 mg/kg
14 | Cc1ccc2ccn3c(C(F)(F)F)nnc3c2c1 [3-Trifluoromethyl-9-methyl-s-triazolo-[3,4-a]-isoquinoline] | ~160 | Anti-Secretory Activity (% Reduction of gastric secretion, ml./100 gm.) (gastric secretion): 22%; anti-secretory activity rather than ulcerogenic properties (in words) (gastric secretion): exhibit anti-secretory activity rather than the ulcerogenic properties
15 | COc1ccc2c(ccn3c(C)nnc23)c1 [3-Methyl-8-methoxy-s-triazolo-[3,4-a]-isoquinoline] | 135 | 
16 | COc1ccc2c(c1)c(CC(=O)O)c(C)n2C(=O)c1ccc(Cl)cc1 [Indomethacin, reference compound] |  | ED50 [1, 5]: 2.4 mg/kg
17 | CN1CCN(c2nnc3c4ccccc4c(Cl)cn23)CC1 [3-(N-methylpiperazino)-6-chloro-s-triazolo-[3,4-a]-isoquinoline] | > 60 | 
18 | CC(=O)OCc1nnc2c3ccccc3ccn12 [3-Acetoxymethyl-s-triazolo-[3,4-a]-isoquinoline] | ~100 | 
19 | CC(=O)Oc1ccccc1C(=O)O [Aspirin, reference compound] |  | ED50 [1, 5]: 224 mg/kg
20 | C[C@@H]1C[C@H]2[C@@H]3CCC4=CC(=O)C=C[C@]4(C)[C@@]3(F)[C@@H](O)C[C@]2(C)[C@@]1(O)C(=O)CO [Dexamethasone, reference compound] |  | ED50 [1, 5]: 0.18 mg/kg
21 | COC(=O)c1cn2c(C(F)(F)F)nnc2c2ccccc12 [3-Trifluoromethyl-6-carbomethoxy-s-triazolo-[3,4-a]-isoquinoline] |  | Anti-Secretory Activity (% Reduction of gastric secretion, ml./100 gm.) (gastric secretion): 6.4%; anti-secretory activity rather than ulcerogenic properties (in words) (gastric secretion): exhibit anti-secretory activity rather than the ulcerogenic properties
22 | FC(F)(F)c1nnc2c3cc(Cl)ccc3ccn12 [3-Trifluoromethyl-9-chloro-s-triazolo-[3,4-a]-isoquinoline] | ~160 | 
23 | COc1ccc2ccn3c(C)nnc3c2c1 [3-methyl-9-methoxy-s-triazolo-[3,4-a]-isoquinoline] | 115 | 
24 | O=C(O)c1cn2c(C(F)(F)F)nnc2c2ccccc12 [3-Trifluoromethyl-6-carboxy-s-triazolo-[3,4-a]-isoquinoline,Potassium Salt] | > 160 | 
